Like-named read-outs stand apart in the source and are kept apart here.
Experiments:
[1] = system: Caenorhabditis elegans (Bristol N2); details: Bristol N2 (wild type), Caenorhabditis elegans, in vivo
HepG2 cells [2] = assay: cells; details: Homo sapiens
[3] = system: Caenorhabditis elegans strain PE255; details: PE255 [sur-5::luc+::gfp; rol-6(su1006)], Caenorhabditis elegans, in vivo
[4] = system: Nrf2/ARE (ARE-bla HepG2 cells); assay: ARE β-lactamase reporter gene assay; type: cell-based, human; details: Homo sapiens, HepG2; 16 h incubation; mean±SD of three experiments; read-out: ARE (HepG2) EC50
HepG2 cells [5] = assay: ROS-Glo hydrogen peroxide (ROS) assay; type: cell-based, human; details: Homo sapiens, HepG2, 2 h, read-out: ROS (HepG2) EC50
HepG2 cells [6] = assay: Intracellular ATP content (cell viability) assay; type: cell-based, human; details: Homo sapiens, HepG2, 40 h
rat primary hepatocytes [7] = system: rat primary hepatocytes
HepG2 cells [8] = details: cited from earlier work
[9] = system: Caenorhabditis elegans strain PE255; assay: In vivo C. elegans ATP status assay; details: Caenorhabditis elegans, read-out: LEC LUM: lowest effect concentration for luminescence, a measure of nematode ATP content
[10] = system: isolated rat liver mitochondria; assay: Oxygen consumption, Clark-type oxygen electrode; type: biochemical
rat primary hepatocytes [11] = assay: MMP assay in rat primary hepatocytes; details: Rattus norvegicus, Hepatocyte
hNSC = assay: MMP assay in human neural stem cells (hNSC); type: cell-based; details: Homo sapiens, Neural stem cell, 1 h, read-out: hNSC IC50 (MMP)
[12] = system: Caenorhabditis elegans (Bristol N2); assay: C. elegans larval development and growth assay; details: Caenorhabditis elegans, read-out: LEC EXT: lowest effect concentration for extinction, a measure of nematode size
[13] = system: HeLa cells expressing YFP-Parkin; assay: Parkin translocation assay; type: cell-based, human

## CC(C)(C)c1cc([N+](=O)[O-])cc([N+](=O)[O-])c1O [Dinoterb]
[1]
  LEC (lowest effect concentration), larval growth assay: < 10 µM
HepG2 cells [2]; HepG2, 1 h, read-out: HepG2 IC50 Galactose (MMP)
  IC50: 7.19 µM
HepG2 cells [2]; HepG2, 1 h, read-out: HepG2 IC50 Glucose (MMP)
  IC50: 7.23 µM
HepG2 cells [2]; HepG2, read-out: MMP assays IC50 (µM) HepG2
  IC50: 2.24 µM
HepG2 cells [2]; HepG2, read-out: MMP assays efficacy (%) HepG2
  Emax: 101%
[3]
  LEC (lowest effect concentration), ATP assay: < 10 µM
  inhibitory effect at (concentration) on ATP content in the C. elegans assay: 1.0 µM
[4]
  EC50: 0.52 ± 0.15 µM
HepG2 cells [5]
  EC50: 13.2 µM
HepG2 cells [6]; read-out: ATP (HepG2, galactose) IC50
  IC50: 22.3 µM
HepG2 cells [6]; read-out: ATP (HepG2, glucose) IC50
  IC50: 19.7 µM
Rat primary hepatocytes [7]
  MMP assays efficacy (%) Rat Hepatocytes: -88±9%
  Rat hepatocytes (efficacy) (MMP): 2.39±1.02 ( −105±23.8 ) %
HepG2 cells [8]
  MMP assays efficacy (%) qHTS-HepG2: -95±8%
HepG2 cells [8]; read-out: MMP assays IC50 (µM) qHTS-HepG2
  IC50: 0.48 µM
[9]
  minimal effective concentration: 1 µM
[10]
  Potential Mechanism: Uncoupler at low concentrations (0.032-0.8 µM), and Uncoupler + inhibitor at high concentrations (4-100 µM)
  effect on mitochondrial respiration (in words): effects similar to those of FCCP
  uncoupler effect at (concentration) in the oxygen consumption assay: 0.032 µM
[10]; 0.0064 µM
  I-ADP, % of control (O2 consumption rate): 103 (38.3) % of control
  I-sub, % of control (O2 consumption rate): 92 (9.9) % of control
  II-ADP, % of control (O2 consumption rate): 105 (66) % of control
  II-sub, % of control (O2 consumption rate): 99 (18.4) % of control
[10]; 0.032 µM
  I-ADP, % of control (O2 consumption rate): 95 (41.5) % of control
  I-sub, % of control (O2 consumption rate): 135 (17.7) % of control
  II-ADP, % of control (O2 consumption rate): 97 (65.4) % of control
[10]; 0.16 µM
  I-ADP, % of control (O2 consumption rate): 113 (49.2) % of control
  I-sub, % of control (O2 consumption rate): 206 (27.0) % of control
  II-ADP, % of control (O2 consumption rate): 106 (72.0) % of control
  II-sub, % of control (O2 consumption rate): 264 (55.1) % of control
[10]; 0.8 µM
  I-ADP, % of control (O2 consumption rate): 148 (64.4) % of control
  I-sub, % of control (O2 consumption rate): 486 (63.7) % of control
  II-ADP, % of control (O2 consumption rate): 102 (68.8) % of control
  II-sub, % of control (O2 consumption rate): 367 (76.8) % of control
[10]; 4 µM
  I-ADP, % of control (O2 consumption rate): 100 (43.7) % of control
  I-sub, % of control (O2 consumption rate): 320 (41.9) % of control
  II-ADP, % of control (O2 consumption rate): 58 (39.5) % of control
  II-sub, % of control (O2 consumption rate): 211 (44.0) % of control
[10]; 20 µM
  I-ADP, % of control (O2 consumption rate): 69 (30.1) % of control
  I-sub, % of control (O2 consumption rate): 239 (31.3) % of control
  II-ADP, % of control (O2 consumption rate): 11 (7.7) % of control
  II-sub, % of control (O2 consumption rate): 36 (7.6) % of control
[10]; 100 µM
  I-ADP, % of control (O2 consumption rate): 10 (4.9) % of control
  I-sub, % of control (O2 consumption rate): 23 (5.0) % of control
  II-ADP, % of control (O2 consumption rate): 5 (3.1) % of control
  II-sub, % of control (O2 consumption rate): 13 (4.4) % of control
Rat primary hepatocytes [11]; 1 h, read-out: Rat hepatocytes IC50 (MMP)
  IC50: 2.39 µM
Rat primary hepatocytes [11]; read-out: MMP assays IC50 (µM) Rat Hepatocytes
  IC50: 0.76 ± 0.45 µM
hNSC
  IC50: 10.1 µM
[12]
  minimal effective concentration: 5 µM
[13]
  Parkin recruitment: Active
[13]; 3 h
  Parkin translocation into mitochondria (in words): patterns similar to antimycin A and FCCP
